These results are taken from patent publication US20220211792A1, “COMPOSITION CONTAINING NATURAL EXTRACTS FOR ENHANCEMENT OF INNATE IMMUNITY OR ANTIVIRAL USE AGAINST INFLUENZA VIRUS OR CORONA VIRUS” (OKCHUNDANG CO., LTD., priority 2021, published 2022).

For one experiment, the system named is IAV. In kind it is cell-based, influenza A virus.
The test system of experiment [1] is influenza virus A/PR/8/34-GFP. The format is cell-based.
Experiment [2] has as its system influenza virus (A/PR/8/34-GFP). In kind it is cell-based.

For the molecule `O=C(/C=C/c1ccc(O)c(O)c1)O[C@@H]1C[C@](O)(C(=O)O)C[C@@H](O)[C@H]1O` [chlorogenic acid], in the experiment with IAV, the “levels of IAV proteins compared with untreated cells” value is “suppressed”. Moreover, the “level of GFP compared with untreated cells” value in experiment [1] is recorded as “lower”.

`CC(C)=CCC[C@](C)(O[C@@H]1O[C@H](CO)[C@@H](O)[C@H](O)[C@H]1O)[C@H]1CC[C@]2(C)[C@@H]1[C@H](O)C[C@@H]1[C@@]3(C)CC[C@H](O[C@@H]4O[C@H](CO)[C@@H](O)[C@H](O)[C@H]4O[C@@H]4O[C@H](CO)[C@@H](O)[C@H](O)[C@H]4O)C(C)(C)[C@@H]3CC[C@]12C` [ginsenoside Rd]: the “levels of IAV proteins compared with untreated cells” value with IAV is listed as “suppressed”. Besides, the “level of GFP compared with untreated cells” value in experiment [1] is “lower”.

B1: IFN-β: mouse IFN-β (1,000 units/ml), positive control (protein, UniProt P01575 22-182, looked up)
Interferon beta: INYKQLQLQERTNIRKCQELLEQLNGKINLTYRADFKIPMEMTEKMQKSYTAFAIQEMLQNVFLVFRNNFSSTGWNETIVVRLLDELHQQTVFLKTVLEEKQEERLTWEMSSTALHLKSYYWRVQRYLKLMKYNSYAWMVVRAEIFRNFLIIRRLTRNFQN
For B1, in experiment [2], the “GFP (influenza virus infection rate)” value was 1.45.
